# Laboratory results as given in US20140018384A1, “QUINOLINONE DERIVATIVES FOR USE IN THE TREATMENT OF AN AUTOIMMUNE DISEASE AND/OR AN INFLAMMATORY DISEASE” (PRONOXIS AB, priority 2011, published 2014).
# Where two headings read alike, the source gives them in different places.
# Assays:
# HL-60 cells = assay: ROS production (isoluminol/HRP luminescence) in HL-60 cells, Biological Example 1; assay type: cell-based; conditions: Homo sapiens, 50 μM compound vs. blank, read-out: Activity A (fold increase of NADPH activity compared to control)
# Procedure: (§1) To cells (HL-60 or PLB-985) in HBSS medium was added compound (25 or 50 μM), isoluminol and Horse Radish Peroxidase, fraction II. Luminescence was measured for 10-30 minutes and the area under the […] curve was divided by that from a control experiment to give the activity expressed as fold change.
# (§2) Each assay indicated below was performed at a different site, at a different time, by different personnel and/or using different cell lines, concentrations and controls. The cell line, concentration of example compound and control used in respect of each assay were as indicated below. The values obtained from these different setups (each using an otherwise identical assay) are given as Activity A, B, C, D or E in Table 5 below. The values are expressed as fold increase of NADPH activity in the presence of the relevant of compound (as indicated below) compared to the relevant control (as indicated below).
# (§3) Activity A: HL-60 cells; 50 μM compound vs. blank Activity B: PLB-985 cells; 25 μM compound vs. blank Activity C, D and E: PLB-985 cells; 25 μM compound vs. DMSO
# PLB-985 cells = assay: ROS production (isoluminol/HRP luminescence) in PLB-985 cells, Biological Example 1; assay type: cell-based
# Procedure: as §1, §2, §3
# [1] = 25 μM compound vs. DMSO, setup C, read-out: Activity C (fold increase of NADPH activity compared to control)
# [2] = 25 μM compound vs. blank, read-out: Activity B (fold increase of NADPH activity compared to control)
# [3] = 25 μM compound vs. DMSO, setup E, read-out: Activity E (fold increase of NADPH activity compared to control)
# [4] = 25 μM compound vs. DMSO, setup D, read-out: Activity D (fold increase of NADPH activity compared to control)
compound,measurement,setting,value
"Cc1ccc(C(=O)c2cn(CC(=O)Nc3ccccc3C)c3cc4c(cc3c2=O)OCO4)cc1 [Example 101, 2-(6,7-Methylenedioxy-4-oxo-3-p-toluoyl-1-quinolinyl)-N-o-tolylacetamide]",fold induction at 50 µM,HL-60 cells,2.1
"CCOc1ccc(NC(=O)Cn2cc(C(=O)c3ccccc3)c(=O)c3cc4c(cc32)OCO4)cc1 [Example 99, 2-(3-Benzoyl-6,7-methylenedioxy-4-oxo-1-quinolinyl)-N-(4-ethoxyphenyl)acetamide]",fold induction at 50 µM,HL-60 cells,4.3
"Cc1ccc(C(=O)c2cn(CC(=O)Nc3ccc(F)c(F)c3)c3cc4c(cc3c2=O)OCO4)cc1 [Example 97, N-(3,4-Difluorophenyl)-2-(6,7-methylenedioxy-4-oxo-3-p-toluoyl-1-quinolinyl)acetamide]",fold induction at 50 µM,HL-60 cells,6
"CCc1ccc(C(=O)c2cn(CC(=O)Nc3ccc(F)cc3)c3cc4c(cc3c2=O)OCO4)cc1 [Example 100, 2-[3-(4-Ethylbenzoyl)-6,7-methylenedioxy-4-oxo-1-quinolinyl]-N-(4-fluorophenyl)acetamide]",fold induction at 50 µM,HL-60 cells,2.9
"CCc1ccc(C(=O)c2cn(CC(=O)Nc3ccc(OC)cc3)c3cc4c(cc3c2=O)OCO4)cc1 [Example 98, N-p-Anisyl-2-[3-(4-ethylbenzoyl)-6,7-methylenedioxy-4-oxo-1-quinolinyl]acetamide]",fold induction at 50 µM,HL-60 cells,9
"O=C(Cn1cc(C(=O)c2ccc(Cl)cc2)c(=O)c2cc3c(cc21)OCO3)Nc1ccc2c(c1)OCCO2 [Example 60, 2-[3-(4-Chlorobenzoyl)-6,7-methylenedioxy-4-oxo-1-quinolinyl]-N-(3,4-ethylenedioxyphenyl)acetamide]",fold induction at 25 µM,PLB-985 cells; [1],33.3
same,fold induction at 25 µM,PLB-985 cells; [2],51.8
"COc1ccc2c(c1)c(=O)c(C(=O)c1ccc(F)cc1)cn2CC(=O)Nc1ccc(C(F)(F)F)cc1 [Example 38, 2-[3-(4-Fluorobenzoyl)-6-methoxy-4-oxo-1-quinolinyl]-N-(4-trifluoromethylphenyl)acetamide]",fold induction at 25 µM,PLB-985 cells; [3],7
"O=C(Cn1cc(C(=O)c2ccccc2)c(=O)c2cc3c(cc21)OCO3)Nc1ccc2c(c1)OCO2 [Example 64, 2-(3-Benzoyl-6,7-methylenedioxy-4-oxo-1-quinolinyl)-N-(3,4-methylenedioxyphenyl)acetamide]",fold induction at 25 µM,PLB-985 cells; [1],27.9
same,fold induction at 25 µM,PLB-985 cells; [2],41.1
"O=C(Cn1cc(C(=O)c2ccc(F)cc2)c(=O)c2cc3c(cc21)OCO3)Nc1ccc2c(c1)OCO2 [Example 86, 2-[3-(4-Fluorobenzoyl)-6,7-methylenedioxy-4-oxo-1-quinolinyl]-N-(3,4-methylenedioxyphenyl)acetamide]",fold induction at 25 µM,PLB-985 cells; [1],28.3
same,fold induction at 25 µM,PLB-985 cells; [2],22.7
"COc1ccc(NC(=O)Cn2cc(S(=O)(=O)c3ccccc3)c(=O)c3cc4c(cc32)OCO4)cc1 [Example 85, N-p-Anisyl-2-(3-benzenesulfonyl-6,7-methylenedioxy-4-oxo-1-quinolinyl)acetamide]",fold induction at 25 µM,PLB-985 cells; [1],12.2
"Cc1ccc(C(=O)c2cn(CC(=O)Nc3ccc4c(c3)OCO4)c3cc4c(cc3c2=O)OCO4)cc1C [Example 76, 2-[3-(3,4-Dimethylbenzoyl)-6,7-methylenedioxy-4-oxo-1-quinolinyl]-N-(3,4-methylenedioxyphenyl)-acetamide]",fold induction at 25 µM,PLB-985 cells; [1],23.9
same,fold induction at 25 µM,PLB-985 cells; [2],43.6
"COc1ccc2c(n1)c(=O)c(C(=O)c1ccc3ccccc3c1)cn2CC(=O)Nc1ccc(Cl)cc1 [Example 21, N-(4-Chlorophenyl)-2-[6-methoxy-3-(2-naphthoyl)-4-oxo-(1,5-naphthyridin-1-yl)]acetamide]",fold induction at 25 µM,PLB-985 cells; [4],68.7
same,fold induction at 25 µM,PLB-985 cells; [3],9.2
"O=C(Cn1cc(C(=O)c2ccc(Cl)cc2)c(=O)c2cc3c(cc21)OCO3)Nc1ccc(Cl)cn1 [Example 36, 2-[3-(4-Chlorobenzoyl)-6,7-methylenedioxy-4-oxo-1-quinolinyl]-N-(5-chloro-2-pyridyl)acetamide]",fold induction at 25 µM,PLB-985 cells; [1],46.4
COc1cccc2c(=O)c(C(=O)c3ccc(F)cc3)cn(CC(=O)Nc3ccc(Cl)cc3)c12 [Example 43],fold induction at 25 µM,PLB-985 cells; [3],3.8
"CCOc1ccc(C(=O)c2cn(CC(=O)Nc3ccc(Cl)cc3)c3cc4c(cc3c2=O)OCO4)cc1 [Example 61, N-(4-Chlorophenyl)-2-[3-(4-ethoxybenzoyl)-6,7-methylenedioxy-4-oxo-1-quinolinyl]acetamide]",fold induction at 25 µM,PLB-985 cells; [1],28.5
same,fold induction at 25 µM,PLB-985 cells; [2],35.9
"Cc1ccc(C(=O)c2cn(CC(=O)Nc3ccc(Cl)cc3)c3cc4c(cc3c2=O)OCO4)cc1C [Example 50, N-(4-Chlorophenyl)-2-[3-(3,4-dimethylbenzoyl)-6,7-methylenedioxy-4-oxo-1-quinolinyl]acetamide]",fold induction at 25 µM,PLB-985 cells; [1],62.8
same,fold induction at 25 µM,PLB-985 cells; [2],163
COc1cccc2c1c(=O)c(C(=O)c1ccc(F)cc1)cn2CC(=O)Nc1ccc(Cl)cc1 [Example 25],fold induction at 25 µM,PLB-985 cells; [3],34.6
"Cc1ccc(C(=O)c2cn(CC(=O)Nc3ccc(F)cc3)c3cc4c(cc3c2=O)OCO4)cc1C [Example 72, 2-[3-(3,4-Dimethylbenzoyl)-6,7-methylenedioxy-4-oxo-1-quinolinyl]-N-(4-fluorophenyl)acetamide]",fold induction at 25 µM,PLB-985 cells; [1],33.6
same,fold induction at 25 µM,PLB-985 cells; [2],62.6
"CCOc1ccc(NC(=O)Cn2cc(C(=O)c3ccc(C)cc3)c(=O)c3cc4c(cc32)OCO4)cc1 [Example 70, N-(4-Ethoxyphenyl)-2-(6,7-methylenedioxy-4-oxo-3-p-toluoyl-1-quinolinyl)acetamide]",fold induction at 25 µM,PLB-985 cells; [1],25.4
same,fold induction at 25 µM,PLB-985 cells; [2],33.2
"COc1ccc2c(c1)c(=O)c(C(=O)c1ccc3ccccc3c1)cn2CC(=O)Nc1ccc(Cl)cc1 [Example 16, N-(4-Chlorophenyl)-2-[6-methoxy-3-(2-naphthoyl)-4-oxo-1-quinolinyl]acetamide]",fold induction at 25 µM,PLB-985 cells; [4],35.4
same,fold induction at 25 µM,PLB-985 cells; [3],5.9
"O=C(Cn1cc(C(=O)c2ccc(F)cc2)c(=O)c2cc3c(cc21)OCO3)Nc1ccc(Cl)cc1 [Example 89, N-(4-Chlorophenyl)-2-[3-(4-fluorobenzoyl)-6,7-methylenedioxy-4-oxo-1-quinolinyl]acetamide]",fold induction at 25 µM,PLB-985 cells; [1],34.4
same,fold induction at 25 µM,PLB-985 cells; [4],17.1
same,fold induction at 25 µM,PLB-985 cells; [2],33
"COc1ccc(NC(=O)Cn2cc(C(=O)c3ccc(Cl)cc3)c(=O)c3cc4c(cc32)OCO4)cc1 [Example 90, N-p-Anisyl-2-[3-(4-chlorobenzoyl)-6,7-methylenedioxy-4-oxo-1-quinolinyl]acetamide]",fold induction at 25 µM,PLB-985 cells; [1],37.6
same,fold induction at 25 µM,PLB-985 cells; [2],40.9
"Cc1ccc(NC(=O)Cn2cc(C(=O)c3ccc4ccccc4c3)c(=O)c3cc4c(cc32)OCO4)cc1 [Example 2, 2-[6,7-Methylenedioxy-3-(2-naphthoyl)-4-oxo-1-quinolinyl]-N-p-tolylacetamide]",fold induction at 25 µM,PLB-985 cells; [3],10
"COc1ccc(NC(=O)Cn2cc(C(=O)c3ccc(C)c(C)c3)c(=O)c3cc4c(cc32)OCO4)c(OC)c1 [Example 30, N-(2,4-Dimethoxyphenyl)-2-[3-(3,4-dimethylbenzoyl)-6,7-methylenedioxy-4-oxo-1-quinolinyl]acetamide]",fold induction at 25 µM,PLB-985 cells; [1],28.2
same,fold induction at 25 µM,PLB-985 cells; [3],4.1
"O=C(Cn1cc(S(=O)(=O)c2ccccc2)c(=O)c2cc3c(cc21)OCO3)Nc1ccc(F)cc1 [Example 80, 2-(3-Benzenesulfonyl-6,7-methylenedioxy-4-oxo-1-quinolinyl)-N-(4-fluorophenyl)acetamide]",fold induction at 25 µM,PLB-985 cells; [1],3.2
"O=C(Cn1cc(C(=O)c2ccc3ccccc3c2)c(=O)c2nc(O)ccc21)Nc1ccc(Cl)cc1 [Example 22, N-(4-Chlorophenyl)-2-[6-hydroxy-3-(2-naphthoyl)-4-oxo-(1,5-naphthyridin-1-yl)]-acetamide]",fold induction at 25 µM,PLB-985 cells; [3],20.2
"COc1ccc2c(c1)c(=O)c(C(=O)c1ccc(F)cc1)cn2CC(=O)Nc1ccc(C)cc1 [Example 37, 2-[3-(4-fluorobenzoyl)-6-methoxy-4-oxo-1-quinolinyl]-N-p-tolylacetamide]",fold induction at 25 µM,PLB-985 cells; [3],8.4
"COc1cc(NC(=O)Cn2cc(C(=O)c3ccc(Cl)cc3)c(=O)c3cc4c(cc32)OCO4)cc(OC)c1 [Example 56, 2-[3-(4-Chlorobenzoyl)-6,7-methylenedioxy-4-oxo-1-quinolinyl]-N-(3,5-dimethoxyphenyl)acetamide]",fold induction at 25 µM,PLB-985 cells; [1],4.4
same,fold induction at 25 µM,PLB-985 cells; [2],6.4
"COc1cc(OC)c2c(c1)c(=O)c(C(=O)c1ccc(F)cc1)cn2CC(=O)Nc1ccc(Cl)cc1 [Example 42, N-(4-Chlorophenyl)-2-[6,8-dimethoxy-3-(4-fluorobenzoyl)-4-oxo-1-quinolinyl]acetamide]",fold induction at 25 µM,PLB-985 cells; [3],2.5
"COc1cc2c(=O)c(C(=O)c3ccc4ccccc4c3)cn(CC(=O)Nc3ccc(Cl)cc3)c2cc1C [Example 19, N-(4-Chlorophenyl)-2-[6-methoxy-7-methyl-3-(2-naphthoyl)-4-oxo-1-quinolinyl]acetamide]",fold induction at 25 µM,PLB-985 cells; [4],10.9
"COc1ccc2c(=O)c(C(=O)c3ccc4ccccc4c3)cn(CC(=O)Nc3ccc(Cl)cc3)c2c1 [Example 18, N-(4-Chlorophenyl)-2-[7-methoxy-3-(2-naphthoyl)-4-oxo-1-quinolinyl]acetamide]",fold induction at 25 µM,PLB-985 cells; [4],12.6
"COc1cc2c(cn1)c(=O)c(C(=O)c1ccc3ccccc3c1)cn2CC(=O)Nc1ccc(Cl)cc1 [Example 23, N-(4-Chlorophenyl)-2-[7-methoxy-3-(2-naphthoyl)-4-oxo-(1,6-naphthyridin-1-yl)]-acetamide]",fold induction at 25 µM,PLB-985 cells; [3],2.1
